Measured values taken from PubChem BioAssay (NCI).
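Results reflect a 48-hour exposure of cells in 96-well plates to compound at five concentrations. At the TGI there is no net growth.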

Key:
Experiment in all cases: inhibition of tumour cell growth, NCI panel, 48 h
[1] = tested on: HCC-2998 colon
[2] = tested on: RXF 393 renal
[3] = tested on: SK-MEL-28 melanoma
[4] = tested on: ACHN renal
[5] = tested on: T-47D breast
[6] = tested on: SF-539 CNS
[7] = tested on: SR leukemia
[8] = tested on: RPMI-8226 leukemia
[9] = tested on: A549 NSCLC
[10] = tested on: SW-620 colon
[11] = tested on: UACC-62 melanoma
[12] = tested on: NCI-H460 lung
[13] = tested on: SNB-19 CNS
[14] = tested on: UO-31 renal
[15] = tested on: HOP-62 NSCLC
[16] = tested on: SK-OV-3 ovarian
[17] = tested on: DU-145 prostate
[18] = tested on: HCT-15 colon
[19] = tested on: OVCAR-5 ovarian
[20] = tested on: OVCAR-3 ovarian
[21] = tested on: MDA-N
[22] = tested on: U251 CNS
[23] = tested on: HOP-92 NSCLC
[24] = tested on: 786-0 renal
[25] = tested on: EKVX NSCLC
[26] = tested on: NCI/ADR-RES ovarian
[27] = tested on: CCRF-CEM leukemia
[28] = tested on: NCI-H23 lung
[29] = tested on: K-562 leukemia
[30] = tested on: OVCAR-8 ovarian
[31] = tested on: BT-549 breast
[32] = tested on: SF-295 CNS
[33] = tested on: SN12C renal
[34] = tested on: UACC-257 melanoma
[35] = tested on: M14 melanoma
[36] = tested on: HS 578T breast
[37] = tested on: MOLT-4 leukemia
[38] = tested on: MDA-MB-435
[39] = tested on: OVCAR-4 ovarian
[40] = tested on: HCT-116 colon
[41] = tested on: TK-10 renal
[42] = tested on: IGROV1 ovarian
[43] = tested on: LOX IMVI melanoma
[44] = tested on: NCI-H522 lung
[45] = tested on: MDA-MB-231 breast
[46] = tested on: HT29 colon
[47] = tested on: NCI-H226 lung
[48] = tested on: COLO 205 colon
[49] = tested on: SF-268 CNS
[50] = tested on: CAKI-1 renal
[51] = tested on: MCF7 breast
[52] = tested on: SNB-75 CNS
[53] = tested on: PC-3 prostate
[54] = tested on: SK-MEL-5 melanoma
[55] = tested on: KM12 colon
[56] = tested on: MALME-3M melanoma
[57] = tested on: SK-MEL-2 melanoma
[58] = tested on: A498 renal
[59] = tested on: HL-60(TB) leukemia

Q: With `Nc1nc(N)c2ncn(-c3ccc(Br)cc3)c2n1` as the compound, how does the TGI [1] read?
A: > 100 µM

Q: What about the TGI [2] of the same compound?
A: > 78.6 µM

Q: What about the TGI [3] of the same compound?
A: > 100 µM

Q: What about the TGI [4] of the same compound?
A: > 52.8 µM

Q: And the TGI [5]?
A: > 100 µM

Q: What about the TGI [6] of the same compound?
A: 46.5 µM

Q: What about the TGI [7] of the same compound?
A: 3.2 µM

Q: And the TGI [8]?
A: > 56.1 µM

Q: And the TGI [9]?
A: > 100 µM

Q: What about the TGI [10] of the same compound?
A: > 100 µM

Q: What about the TGI [11] of the same compound?
A: > 66.8 µM

Q: And the TGI [12]?
A: > 100 µM

Q: And the TGI [13]?
A: > 100 µM

Q: What about the TGI [14] of the same compound?
A: > 50.6 µM

Q: And the TGI [15]?
A: > 59.8 µM

Q: What about the TGI [16] of the same compound?
A: 73.9 µM

Q: What about the TGI [17] of the same compound?
A: > 100 µM

Q: What about the TGI [18] of the same compound?
A: > 100 µM

Q: And the TGI [19]?
A: > 73.1 µM

Q: What about the TGI [20] of the same compound?
A: > 64 µM

Q: What about the TGI [21] of the same compound?
A: > 100 µM

Q: What about the TGI [22] of the same compound?
A: > 100 µM

Q: What about the TGI [23] of the same compound?
A: > 38.1 µM

Q: And the TGI [24]?
A: > 100 µM

Q: What about the TGI [25] of the same compound?
A: 88.4 µM

Q: And the TGI [26]?
A: 50.8 µM

Q: What about the TGI [27] of the same compound?
A: 34.7 µM

Q: What about the TGI [28] of the same compound?
A: > 93.2 µM

Q: And the TGI [29]?
A: 38.3 µM

Q: What about the TGI [30] of the same compound?
A: > 55.7 µM

Q: What about the TGI [31] of the same compound?
A: > 100 µM

Q: What about the TGI [32] of the same compound?
A: > 100 µM

Q: And the TGI [33]?
A: 75.6 µM

Q: And the TGI [34]?
A: > 100 µM

Q: What about the TGI [35] of the same compound?
A: > 69.2 µM

Q: What about the TGI [36] of the same compound?
A: 25.3 µM

Q: And the TGI [37]?
A: 37.3 µM

Q: What about the TGI [38] of the same compound?
A: > 100 µM

Q: And the TGI [39]?
A: > 100 µM

Q: What about the TGI [40] of the same compound?
A: > 100 µM

Q: What about the TGI [41] of the same compound?
A: > 100 µM

Q: What about the TGI [42] of the same compound?
A: 41.5 µM

Q: And the TGI [43]?
A: > 100 µM

Q: What about the TGI [44] of the same compound?
A: > 42.5 µM

Q: What about the TGI [45] of the same compound?
A: > 86.1 µM

Q: What about the TGI [46] of the same compound?
A: > 45.6 µM

Q: What about the TGI [47] of the same compound?
A: > 100 µM

Q: And the TGI [48]?
A: > 100 µM

Q: What about the TGI [49] of the same compound?
A: > 63.8 µM

Q: What about the TGI [50] of the same compound?
A: > 45.3 µM

Q: What about the TGI [51] of the same compound?
A: > 57.1 µM

Q: What about the TGI [52] of the same compound?
A: 31.2 µM

Q: And the TGI [53]?
A: > 65 µM

Q: And the TGI [54]?
A: > 100 µM

Q: And the TGI [55]?
A: > 45.7 µM

Q: And the TGI [56]?
A: > 44.9 µM

Q: What about the TGI [57] of the same compound?
A: 41.5 µM

Q: What about the TGI [58] of the same compound?
A: > 61.9 µM

Q: `CC1(c2ccccc2)CCN(C2CC2)CO1` (stereo not drawn) was tested. Which TGI [1] did it give?
A: 30.8 µM

Q: What about the TGI [2] of the same compound?
A: 69.3 µM

Q: What about the TGI [3] of the same compound?
A: 37.5 µM

Q: And the TGI [4]?
A: 31.7 µM

Q: What about the TGI [5] of the same compound?
A: 45.1 µM

Q: And the TGI [7]?
A: 65.5 µM

Q: What about the TGI [8] of the same compound?
A: > 100 µM

Q: What about the TGI [9] of the same compound?
A: > 100 µM

Q: What about the TGI [10] of the same compound?
A: 36.2 µM

Q: What about the TGI [11] of the same compound?
A: 32 µM

Q: And the TGI [59]?
A: > 100 µM

Q: And the TGI [12]?
A: 28.1 µM

Q: And the TGI [13]?
A: > 100 µM

Q: What about the TGI [14] of the same compound?
A: 35.8 µM

Q: And the TGI [15]?
A: > 100 µM

Q: And the TGI [16]?
A: > 100 µM

Q: And the TGI [17]?
A: > 100 µM

Q: And the TGI [18]?
A: 30.1 µM

Q: What about the TGI [19] of the same compound?
A: 33.3 µM

Q: And the TGI [20]?
A: 31.7 µM

Q: What about the TGI [21] of the same compound?
A: 31 µM

Q: What about the TGI [22] of the same compound?
A: > 100 µM

Q: What about the TGI [24] of the same compound?
A: 29.9 µM

Q: And the TGI [25]?
A: 41.4 µM

Q: What about the TGI [26] of the same compound?
A: 46.6 µM

Q: What about the TGI [27] of the same compound?
A: > 100 µM

Q: What about the TGI [28] of the same compound?
A: 85.2 µM

Q: What about the TGI [29] of the same compound?
A: > 100 µM

Q: And the TGI [30]?
A: > 100 µM

Q: What about the TGI [31] of the same compound?
A: 32.3 µM

Q: And the TGI [32]?
A: > 100 µM

Q: And the TGI [33]?
A: 36.6 µM

Q: And the TGI [34]?
A: 47.8 µM

Q: What about the TGI [35] of the same compound?
A: 31 µM

Q: What about the TGI [36] of the same compound?
A: 44 µM

Q: And the TGI [37]?
A: 43.5 µM

Q: What about the TGI [38] of the same compound?
A: > 100 µM

Q: And the TGI [39]?
A: 33.9 µM

Q: And the TGI [40]?
A: 40.9 µM

Q: What about the TGI [41] of the same compound?
A: 26.7 µM

Q: What about the TGI [42] of the same compound?
A: 40.2 µM

Q: What about the TGI [43] of the same compound?
A: 39.9 µM

Q: What about the TGI [45] of the same compound?
A: 38.4 µM

Q: And the TGI [46]?
A: 35.7 µM

Q: What about the TGI [47] of the same compound?
A: > 100 µM

Q: What about the TGI [48] of the same compound?
A: 39.8 µM

Q: What about the TGI [49] of the same compound?
A: 35.4 µM

Q: What about the TGI [50] of the same compound?
A: 36.5 µM

Q: And the TGI [51]?
A: 32 µM

Q: And the TGI [52]?
A: > 100 µM

Q: What about the TGI [53] of the same compound?
A: > 100 µM

Q: What about the TGI [54] of the same compound?
A: > 100 µM

Q: And the TGI [55]?
A: 30.4 µM

Q: What about the TGI [56] of the same compound?
A: 34.4 µM

Q: And the TGI [57]?
A: > 100 µM
